In assay [1] the target is PDGFR-β (Homo sapiens (Human), UniProt P09619). Kind of assay: PDGFR-β tyrosine kinase inhibitory action (HTRF KinEASE-TK). The format is biochemical. The note with it: PDGFR-β enzyme 1 ng/μL, 30° C. for 30 minutes; read-out: PDGF-β IC50. As to the method: (§1) 1. Preparation of Test Substance
This DMSO solution was diluted by 8 times with an assay buffer 1 (50 mM HEPES (pH 7.0), 0.02% NaN3, 0.01% Bovine Serum Albumin, 0.1 mM orthovanadate, 1 mM Dithiothreitol, 5 mM MgCl2, and 1 mM MnCl2) and further diluted by 5 times with an assay buffer 2 (50 mM HEPES (pH 7.0), 0.02% NaN3, 0.01% Bovine Serum Albumin, 0.1 mM orthovanadate, 1 mM Dithiothreitol, 5 mM MgCl2, 1 mM MnCl2, and 40 nM Supplemented Enzymatic Buffer (cisbio)).
2. Measurement of PDGFR-β Tyrosine Kinase Inhibitory Action
For the measurement, the HTRF KinEASE-TK kit from Cisbio Bioassays SAS was used. To a 384 well plate, the test substance solution was added at 4 μL each, then 2 μL of a PDGFR-β enzyme solution (final concentration of 1 ng/μL, Carna Biosciences, Inc.) and 4 μL of a substrate solution obtained by adding 0.6 μM ATP to TK substrate-3-biotin (cisbio) were added, and the solution was allowed to react at 30° C. for 30 minutes at a final concentration of the test substance being 0.01 to 10,000 nM.
Thereafter, 10 μL of a detection solution (cisbio) was added to each well and allowed to react at 30° C. for 1 hour. The fluorescence intensity was measured with a microplate reader (Spectra Max M5, Molecular device).
(§2) 3. Analysis of Measurement Results

Assay [2] deals with pulmonary arterial smooth muscle cells. The assay can be described thus: Suppression of proliferation of pulmonary arterial smooth muscle cells (PDGF-BB stimulation, BrdU). The format is cell-based. The conditions noted are these: PASMC, 24 h; healthy human derived pulmonary arterial smooth muscle cells; human PDGF-BB 10 ng/mL stimulation; BrdU uptake after 1 day; test substance final concentration 3 to 10,000 nM; read-out: Human normal PASMC proliferation suppression (PDGF stimulation_IC50). As to the method:
as §1
Furthermore, it was diluted by 50 times with distilled water.
2. Measurement of Suppression Action Against Proliferation of Pulmonary Arterial Smooth Muscle Cells
The day after healthy human derived pulmonary arterial smooth muscle cells were seeded onto a 96 well plate using a smooth muscle cell proliferation medium, the proliferation medium was replaced with a 0.1% FBS medium, and the cells were cultured for an additional day. A test substance solution was diluted by 10 times with a medium containing BrdU and human PDGF-BB (final concentration of 10 ng/mL, Sigma-Aldrich) and added to cells in equal amounts so as to reach a final concentration of 3 to 10,000 nM. Also, to the human PDGF-BB negative control, BrdU and 0.1% DMSO solution were added. After culturing for 1 day, the amount of BrdU taken up by the proliferating cells was measured using an anti-BrdU antibody.
as §2

The values below come from patent US12509424B2, “Compound and composition as PDGF receptor kinase inhibitor” (NIPPON SHINYAKU CO., LTD., priority 2019, dated 2025).

Sequence of PDGFR-β (P09619 33-1106): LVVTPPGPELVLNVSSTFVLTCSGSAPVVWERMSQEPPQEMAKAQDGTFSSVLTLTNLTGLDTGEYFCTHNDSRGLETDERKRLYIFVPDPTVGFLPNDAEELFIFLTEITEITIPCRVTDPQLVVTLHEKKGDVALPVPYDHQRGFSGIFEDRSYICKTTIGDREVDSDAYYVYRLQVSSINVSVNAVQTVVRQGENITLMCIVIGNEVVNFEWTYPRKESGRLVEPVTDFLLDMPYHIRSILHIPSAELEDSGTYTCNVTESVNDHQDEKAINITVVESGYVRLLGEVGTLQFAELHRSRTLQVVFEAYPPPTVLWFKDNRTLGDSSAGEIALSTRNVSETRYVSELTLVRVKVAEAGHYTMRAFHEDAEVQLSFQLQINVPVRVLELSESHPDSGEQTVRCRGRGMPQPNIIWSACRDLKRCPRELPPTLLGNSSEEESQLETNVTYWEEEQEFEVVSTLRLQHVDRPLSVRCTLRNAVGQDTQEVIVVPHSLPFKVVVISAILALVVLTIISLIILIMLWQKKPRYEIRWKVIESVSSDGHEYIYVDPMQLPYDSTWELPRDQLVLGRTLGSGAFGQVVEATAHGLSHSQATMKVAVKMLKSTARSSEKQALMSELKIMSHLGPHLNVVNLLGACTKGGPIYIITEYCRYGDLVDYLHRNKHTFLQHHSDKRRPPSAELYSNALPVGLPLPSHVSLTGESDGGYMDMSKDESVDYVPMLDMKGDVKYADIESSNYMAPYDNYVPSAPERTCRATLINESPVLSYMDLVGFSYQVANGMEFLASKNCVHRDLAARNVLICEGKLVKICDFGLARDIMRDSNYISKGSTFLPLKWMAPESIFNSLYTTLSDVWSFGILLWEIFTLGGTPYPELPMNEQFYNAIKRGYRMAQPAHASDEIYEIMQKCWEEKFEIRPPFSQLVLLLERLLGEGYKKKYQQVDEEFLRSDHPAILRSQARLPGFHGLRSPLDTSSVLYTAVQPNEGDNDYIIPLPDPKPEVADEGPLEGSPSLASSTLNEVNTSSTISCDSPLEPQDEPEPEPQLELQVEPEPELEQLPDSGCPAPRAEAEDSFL

For the compound `Cc1nc(N)ncc1/C(F)=C/c1cc(C(=O)N[C@H]2CCCC[C@@H]2O)ccc1F` [Example 204, 3-[(Z)-2-(2-amino-4-methylpyrimidin-5-yl)-2-fluoroethenyl]-4-fluoro-N-[(1S,2S)-2-hydroxycyclohexyl]benzamide], the figures for the IC50 in assay [1] and in assay [2] were 21 nM and 52 nM, respectively.

With `Cc1ccc(C(=O)N[C@H]2CCCC[C@@H]2O)cc1NCc1cnc(-c2ccccc2)nc1` [Example 121, N-[(1S,2S)-2-hydroxycyclohexyl]-4-methyl-3-{[(2-phenylpyrimidin-5-yl)methyl]amino}benzamide], the values for the IC50 in assay [1] and in assay [2] were 160 nM and 300 nM, respectively.

For `O=C(N[C@H]1CCCC[C@@H]1O)c1ccc(F)c(/C=C(\F)c2cncc(NC3COC3)c2)c1` [Example 196, 4-fluoro-3-[(Z)-2-fluoro-2-{5-[(oxetan-3-yl)amino]pyridin-3-yl}ethenyl]-N-[(1S,2S)-2-hydroxycyclohexyl]benzamide], the IC50 in assay [1] was 26 nM; in assay [2], 31 nM.

With `O=C(N[C@H]1CCCC[C@@H]1O)c1ccc(F)c(/C=C(\F)c2cncc(NC3CCOCC3)c2)c1` [Example 185, 4-fluoro-3-[(Z)-2-fluoro-2-{5-[(oxan-4-yl)amino]pyridin-3-yl}ethenyl]-N-[(1S,2S)-2-hydroxycyclohexyl]benzamide], the IC50 is 5.1 nM in assay [1] and 28 nM in assay [2].

In the case of `Cc1ccc(C(=O)N[C@H]2CCCC[C@@H]2O)cc1NCc1cnc2c(c1)OCCN2` [Example 144, 3-{[(3,4-dihydro-2H-pyrido[3,2-b][1,4]oxazin-7-yl)methyl]amino}-N-[(1S,2S)-2-hydroxycyclohexyl]-4-methylbenzamide], the figures for the IC50 in assay [1] and in assay [2] were 65 nM and 39 nM, respectively.

On to `CNc1ncc2c(Nc3cc(C(=O)N[C@H]4CCCC[C@@H]4O)ccc3C)cccc2n1` [Example 82, N-[(1S,2S)-2-hydroxycyclohexyl]-4-methyl-3-{[2-(methylamino)quinazolin-5-yl]amino}benzamide], for which the IC50 in assay [1] worked out at 27 nM; in assay [2] it was 72 nM.

As to `Cc1ccc(C(=O)N[C@H]2CCCC[C@@H]2O)cc1NCc1cnc(N)cn1` [Example 131, 3-{[(5-aminopyrazin-2-yl)methyl]amino}-N-[(1S,2S)-2-hydroxycyclohexyl]-4-methylbenzamide], the IC50 is 490 nM in assay [1] and 340 nM in assay [2].

Consider `Cc1ccc(C(=O)N[C@H]2CCCC[C@@H]2O)cc1CN(C)c1cncc(-c2ccccc2)c1` [Example 175, N-[(1S,2S)-2-hydroxycyclohexyl]-4-methyl-3-{[methyl(5-phenylpyridin-3-yl)amino]methyl}benzamide], for which, in assay [1], the IC50 was determined as 24 nM.

`Cc1ccc(C(=O)N[C@H]2CCCC[C@@H]2O)cc1NCc1ccc(NC(=O)Nc2cccnc2)nc1` [Example 129, N-[(1S,2S)-2-hydroxycyclohexyl]-4-methyl-3-{[(6-{[(pyridin-3-yl)carbamoyl]amino}pyridin-3-yl)methyl]amino}benzamide]: the IC50 in assay [1] is 17 nM; in assay [2] it was 20 nM.

With `CC(=O)Nc1ccc(CNc2cc(C(=O)N[C@H]3CCCC[C@@H]3O)ccc2C)cn1` [Example 116, 3-{[(6-acetamidopyridin-3-yl)methyl]amino}-N-[(1S,2S)-2-hydroxycyclohexyl]-4-methylbenzamide], the IC50 in assay [2] is 120 nM.

`CCN(Cc1cc(C(=O)N[C@H]2CCCC[C@@H]2O)ccc1C)c1cncc(-c2ccccc2)c1` [Example 176, 3-{[ethyl(5-phenylpyridin-3-yl)amino]methyl}-N-[(1S,2S)-2-hydroxycyclohexyl]-4-methylbenzamide]: the IC50 in assay [1] was 50 nM.

As for `Cc1ccc(C(=O)N[C@H]2CCCC[C@@H]2O)cc1OC(C)c1cncc(-c2ccccc2)c1` (stereo partly drawn) [Example 172, N-[(1S,2S)-2-hydroxycyclohexyl]-4-methyl-3-[1-(5-phenylpyridin-3-yl)ethoxy]benzamide], the IC50 in assay [1] stood at 190 nM.
